{"source": "paper PMC4749168", "about": "“Potentiation of ΔF508- and G551D-CFTR-Mediated Cl^- Current by Novel Hydroxypyrazolines” (PLoS ONE, 2016)", "type_in_all_cases": "cell-based", "key": {"ΔF508-CFTR [1]": {"biological_target": "T1, ΔF508-CFTR (Homo sapiens, UniProt P13569, DEL508-508)", "T1 sequence (P13569 with tags, fused parts or gaps DEL508-508)": "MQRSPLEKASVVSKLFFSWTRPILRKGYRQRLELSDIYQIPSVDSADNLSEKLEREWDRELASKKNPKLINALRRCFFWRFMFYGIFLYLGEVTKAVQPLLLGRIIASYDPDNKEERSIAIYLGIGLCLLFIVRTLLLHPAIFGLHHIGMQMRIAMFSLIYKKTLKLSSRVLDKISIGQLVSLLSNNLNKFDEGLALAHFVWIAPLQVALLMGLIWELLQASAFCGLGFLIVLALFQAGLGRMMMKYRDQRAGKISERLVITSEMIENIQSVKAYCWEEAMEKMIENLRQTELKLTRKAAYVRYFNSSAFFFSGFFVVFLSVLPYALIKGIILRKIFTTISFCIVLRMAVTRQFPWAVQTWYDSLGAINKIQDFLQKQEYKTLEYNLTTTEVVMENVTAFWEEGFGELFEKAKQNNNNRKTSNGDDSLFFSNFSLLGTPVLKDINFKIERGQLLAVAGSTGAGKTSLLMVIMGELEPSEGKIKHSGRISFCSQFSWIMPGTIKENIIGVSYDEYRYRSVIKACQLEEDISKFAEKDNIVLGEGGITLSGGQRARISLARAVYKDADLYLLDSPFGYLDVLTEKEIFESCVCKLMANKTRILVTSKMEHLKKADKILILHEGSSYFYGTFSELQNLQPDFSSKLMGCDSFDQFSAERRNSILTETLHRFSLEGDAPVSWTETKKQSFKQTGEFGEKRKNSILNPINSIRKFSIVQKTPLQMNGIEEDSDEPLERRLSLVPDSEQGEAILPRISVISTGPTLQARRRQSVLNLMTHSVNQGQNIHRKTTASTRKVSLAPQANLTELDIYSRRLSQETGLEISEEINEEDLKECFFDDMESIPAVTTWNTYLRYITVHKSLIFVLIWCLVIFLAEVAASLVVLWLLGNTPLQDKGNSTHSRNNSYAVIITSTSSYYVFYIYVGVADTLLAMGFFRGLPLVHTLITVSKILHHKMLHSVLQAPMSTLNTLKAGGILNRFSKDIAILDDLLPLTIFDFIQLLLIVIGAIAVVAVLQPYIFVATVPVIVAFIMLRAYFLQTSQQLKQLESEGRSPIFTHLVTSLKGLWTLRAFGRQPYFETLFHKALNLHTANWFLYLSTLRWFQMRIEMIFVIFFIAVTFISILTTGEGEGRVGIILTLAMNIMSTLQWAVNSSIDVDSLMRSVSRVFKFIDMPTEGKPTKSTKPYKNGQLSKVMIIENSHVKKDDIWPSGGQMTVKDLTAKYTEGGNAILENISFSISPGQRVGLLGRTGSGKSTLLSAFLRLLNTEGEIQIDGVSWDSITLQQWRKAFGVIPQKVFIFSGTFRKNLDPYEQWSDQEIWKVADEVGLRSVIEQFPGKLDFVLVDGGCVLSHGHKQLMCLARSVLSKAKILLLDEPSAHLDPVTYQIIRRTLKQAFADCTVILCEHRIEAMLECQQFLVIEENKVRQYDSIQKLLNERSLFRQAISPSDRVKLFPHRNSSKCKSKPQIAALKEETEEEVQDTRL", "experiment": "Immunoblot of ΔF508-CFTR band C/B in A549-ΔF508-CFTR cells", "parameters": "expressed in transfected cells", "conditions": "48 h, combined with 5 μM VX-809, 10 μM CP7q, vs VX-809 alone", "procedure": "A549 cells stably expressing ΔF508-CFTR were lysed with cell lysis buffer (50 mM Tris-HCl, pH 7.4, 1% Nonidet P-40, 0.25% sodium deoxycholate, 150 mM NaCl, 1 mM EDTA, 1 mM Na3VO4, and protease inhibitor mixture). Whole cell lysates were centrifuged at 15,000 g for 10 min at 4°C to remove the cell debris, and equal amounts (80 μg protein/lane) of supernatant protein were separated by 4–12% Tris-glycine precast gel (KOMA BIOTECH, Seoul, Korea) and then transferred onto PVDF membrane (Millipore, Billerica, MA). Membrane was blocked with 5% non-fat skim milk in PBS including 0.05% Tween 20 for 1 hour at room temperature. This membrane was then incubated overnight with primary CFTR antibody (M3A7, Millipore, Billerica, MA). After washing with 0.05% Tween 20 in PBS (PBST), the blot was further incubated for 45 min at room temperature with an anti-mouse secondary antibody (Cell Signaling). The membrane was then washed three times with PBST for 5 minutes and then visualized using the ECL Plus western blotting detection system (GE Healthcare Amersham; Piscataway, NJ). The immunoblot results were analyzed quantitatively by ImageJ Software."}, "ΔF508-CFTR [2]": {"biological_target": "T1, ΔF508-CFTR", "experiment": "Whole-cell patch-clamp in FRT cells expressing ΔF508-CFTR", "parameters": "expressed in transfected cells; host or cells: Fisher rat thyroid (FRT) cells, co-expressing halide sensor YFP-H148Q/I152L; provided by Dr. Alan Verkman", "procedure": "Whole-cell patch-clamp recordings were performed on WT- or ΔF508-CFTR-expressing FRT cells. The bath solution contained (in mM): 140 NMDG-Cl, 1 CaCl2, 1 MgCl2, 10 glucose and 10 HEPES (pH 7.4). The pipette solution contained (in mM): 130 CsCl, 0.5 EGTA, 1 MgCl2, 1 Tris-ATP, and 10 HEPES (pH 7.2). Pipettes were pulled from borosilicate glass and had resistances of 3–5 MΩ after fire polishing. Seal resistances were between 3 and 10 GΩ. After establishing the whole-cell configuration, CFTR was activated by forskolin and/or CP7q. Whole-cell currents were elicited by applying hyperpolarizing and depolarizing voltage pulses from a holding potential of 0 mV to potentials between -80 mV and +80 mV in steps of 20 mV. Recordings were made at room temperature using an Axopatch-200B (Axon Instruments). Currents were digitized and analyzed using a Digidata 1440A converter (Axon Instruments), and pCLAMP 10.2 software (Molecular Devices, Sunnyvale, CA). Currents were low-pass filtered at 1 kHz and sampled at 5 kHz"}, "WT-CFTR": {"biological_target": "T2, WT-CFTR (Homo sapiens, UniProt P13569)", "T2 construct": "expressed in transfected cells; host or cells: Fisher rat thyroid (FRT) cells, co-expressing halide sensor YFP-H148Q/I152L; provided by Dr. Alan Verkman", "experiment": "Halide-sensitive YFP microplate reader assay of CFTR potentiation, WT-CFTR", "conditions": "FRT cells, 0.1 μM forskolin", "procedure": "FRT cells expressing wild type- or ΔF508-CFTR with the halide sensor YFP-H148Q/I152L were plated in 96-well black-walled microplates (Corning Inc., Corning, NY) at a density of 2 x10^4cells per well. FRT-WT-CFTR-YFP cells were incubated for 48 h at 37°C, and FRT-ΔF508-CFTR-YFP cells were incubated for 24 h at 27°C after 24 h incubation at 37°C to rescue ΔF508-CFTR localization. Assays were done using FLUO star Omega microplate reader (BMG Labtech, Ortenberg, Germany) and MARS Data Analysis Software (BMG Labtech). Each well of a 96-well plate was washed 3 times in PBS (200 μL/wash). 100 μL PBS was added to each well. Forskolin (0.1 and 10 μM for WT- and ΔF508-CFTR, respectively) and test compounds (1 μL) were added to each well. After 10 min, 96-well plates were transferred to the microplate reader preheated to 37°C for fluorescence assay. Each well was assayed individually for CFTR-mediated I^- influx by recording fluorescence continuously (200 ms per point) for 2 s (baseline), then 100 μL of 140 mM I^- solution was added at 2 s and then YFP fluorescence was recorded for 14 s. Initial iodide influx rate was determined from the initial slope of fluorescence decrease, by nonlinear regression, following infusion of iodide."}}}
{"compound": "COc1ccc(C2CC(c3ccc(O)cc3O)=NN2c2ccc(S(N)(=O)=O)cc2)c(OC)c1", "note": "(stereo not shown) [Compound 7q, 4-[3-(2,4-dihydroxyphenyl)-5-(2,4-dimethoxyphenyl)-4,5-dihydro-1H-pyrazol-1-yl] benzenesulfonamide]", "values": [{"measurement": "Effect on ratio of band C to band B of ΔF508-CFTR", "setting": "ΔF508-CFTR [1]", "value": "strongly increased"}, {"measurement": "Potentiation of whole-cell ΔF508-CFTR Cl- current", "setting": "ΔF508-CFTR [2]; 10 μM forskolin, 10 μM CP7q, 27°C rescue", "value": "significantly potentiated"}, {"measurement": "Activation of ΔF508-CFTR without forskolin stimulation", "setting": "ΔF508-CFTR [2]; whole cell patch-clamp, no forskolin", "value": "did not activate"}, {"measurement": "EC50", "setting": "WT-CFTR", "value": 0.9, "unit": "µM"}]}
